# According to ChEMBL document CHEMBL3045360, “Natural toxins for use in pest management” (2010):
# Legend:
# Assay type in all cases: functional
# Aedes aegypti [1] = test: Insecticidal activity against Aedes aegypti assessed as insect mortality at 2 ppm
# Aedes aegypti [2] = test: Insecticidal activity against Aedes aegypti assessed as lethal compound dose per mosquito measured after 24 hr post topical application
# Planorbella trivolvis = test: Molluscicidal activity against Planorbella trivolvis
# Pomacea canaliculata [3] = test: Molluscicidal activity against Pomacea canaliculata assessed as mortality at 200 uM after 24 hr
# Pomacea canaliculata [4] = test: Molluscicidal activity against Pomacea canaliculata
# Pomacea canaliculata [5] = test: Molluscicidal activity against Pomacea canaliculata assessed as mortality at 75 uM after 24 hr
smiles,measurement,setting,value
O=C(/C=C/C=C/CCCCCCc1ccc2c(c1)OCO2)N1CCCCC1,mortality at 2 ppm,Aedes aegypti [1],20%
CC(C)NC(=O)/C=C/C=C/CCCCCCc1ccc2c(c1)OCO2,mortality at 2 ppm,Aedes aegypti [1],80%
C=CCCCCCCCCC(=O)N1CCCCC1CC (stereo unspecified) [2-ethyl-1-undec-10-enoyl-piperidine],LD50,Aedes aegypti [2],0.8 µg
"C/C=C\C#CC#C/C=C\C(=O)OC [(2Z,8Z)-MATRICARIA ACID METHYL ESTER]",LC50,Planorbella trivolvis,24 µM
CC1(C)CC[C@]2(C(=O)O)CC[C@]3(C)C(=CC[C@@H]4[C@@]5(C)CC[C@H](O[C@@H]6O[C@H](CO)[C@@H](O)[C@H](O)[C@H]6O)[C@@](C)(CO)[C@@H]5CC[C@]43C)[C@@H]2C1 [Hederagenin-3-O-beta-D-glucopyranoside],LC50,Planorbella trivolvis,30 µM
COC(=O)N(C(=O)N1CO[C@@]2(C(=O)OC)Cc3cc(Cl)ccc3C2=N1)c1ccc(OC(F)(F)F)cc1 [INDOXACARB],mortality at 2 ppm,Aedes aegypti [1],40%
CC1OC(C)OC(C)OC(C)O1 (stereo unspecified) [METALDEHYDE],mortality at 200 µM,Pomacea canaliculata [3],100%
same,LC50,Pomacea canaliculata [4],30 µM
O=C(/C=C/C=C/c1ccc2c(c1)OCO2)N1CCCCC1 [PIPERINE],LD50,Aedes aegypti [2],8.13 µg
CC1=CC(=O)C2C3C1C2(C)CCCC3(C)C (stereo unspecified) [VULGARONE B],LC50,Pomacea canaliculata [4],30 µM
same,mortality at 75 µM,Pomacea canaliculata [5],100%
